Target: neurotensin receptor 1 (NTR1) (Homo sapiens (Human), UniProt P30989)
Assay: NTR1 dose response, high-content imaging beta-arrestin-GFP assay in NTR1-U2OS cells
Assay type: cell-based
Settings: read-out: EC50
Text: The cell lines utilized in the high-content imaging assays, which include the NTR1-, NTR2-, and GPR35-U2OS osteosarcomas, were obtained from the laboratory of Dr. Lawrence Barak at the Duke University Medical Center. The media used in the culture of the cell lines, as well as the assays themselves, consisted of Minimum Essential Medium (15-010-CM) and L-glutamine (25-005-CL) from Cellgro/Mediatech (Manassas, Va.), fetal bovine serum (SH30396.03) from Hyclone (Logan, Utah), penicillin-streptomycin solution (PS-20) from Omega Scientific in Tarzana, Calif., G418 (ant-gn-1) from Invivogen (San Diego, Calif.), and zeocin (R250-01) from Invitrogen (Carlsbad, Calif.). Cell lines were cultured in T225 tissue culture flasks (431082) supplied by Corning (Corning, N.Y.). Additional reagents employed include Dulbecco's Phosphate-Buffered Saline (DPBS) (21-031CV) from Cellgro/Mediatech, Trypsin-EDTA 0.05% (25300) from Invitrogen, paraformaldehyde (30528954) from Acros Organics (Geel, Belgium), Hoechst 33342 (H3570) from Invitrogen. The high-content assays were run in 1536-well plates (29326) supplied by Aurora Biotechnology (Poway, Calif.) and utilized aluminum plate seals (T592100) from E&K Scientific (Santa Clara, Calif.). […]
The high-content imaging based NTR1 primary screen in 1536-well format was utilized to assay the MLSMR library of chemical entities in the following manner. On day one, 4 uL of a cell suspension containing 350,000 NTR1-U2OS cells per mL is added to each well of a 1536-well assay plate. Cells are plated in MEM medium containing 2.5% Fetal Bovine Serum, 1% Penicillin/Streptomycin solution, 1% L-Glutamine, 400 ug/mL G418, and 200 ug/mL Zeocin. The assay plates are then incubated overnight at 37° C., under 5% CO2. Following the overnight incubation, a volume of 60 nL of the compounds at 2 mM in DMSO (final 20 μM, 1% DMSO) was transferred to columns 5-48 of the assay plates using a LabCyte Echo Liquid Handler. Next, 60 nL of DMSO were dispensed to columns 1-4, which served as the positive and neutral control wells. […] The assay plates were centrifuged on an Eppendorf 5810 centrifuge at 1000 rpm for 1 min to ensure even liquid levels in the wells of the assay plates. The assay plates were then returned to the incubator for 1 hour. Following the hour-long incubation at 37° C., the cells in each well were fixed with 4 uL of 6% paraformaldehyde added with a Multidrop Combi. The assay plates were centrifuged as before and incubated at room temperature for 1 hour. On the Kalypsys, plates were then aspirated down to 2.5 uL per well and washed twice with 11 uL per well of DPBS, followed by a final aspiration to 2.5 uL per well. On the Combi dispenser, 5 uL of 5 ug/mL Hoechst 33342 diluted in DPBS was added to each well of assay plates. The plates were again centrifuged as previously described, sealed, and incubated for at least 1 hour prior to being loaded on a PerkinElmer Opera QEHS.
Image acquisition was performed with a 45 plate capacity loader/stacker and the following settings: 40×0.6 NA air objective, acquisition camera set to 2-by-2 binning for an image size of 688 by 512 pixels, beta-arrestin-GFP acquired using 488 nm laser excitation and 540/75 nm emission filters, DAPI (nuclei) using 365 nm Xenon lamp excitation and 450/50 nm emission filters, 3 fields per well. Image analysis was performed using the Acapella Spot Detection Algorithm. For analysis settings and the metrics employed in the data analyses, please refer to supplemental information.
Compounds that were successfully confirmed in quadruplicate at 20 uM were then run in dose response in the primary assay. As with the single concentration hit confirmation, the assay was performed in an identical manner as the primary screen with the following modifications. […]

Sequence of neurotensin receptor 1 (NTR1) (P30989 whole entry, species assumed): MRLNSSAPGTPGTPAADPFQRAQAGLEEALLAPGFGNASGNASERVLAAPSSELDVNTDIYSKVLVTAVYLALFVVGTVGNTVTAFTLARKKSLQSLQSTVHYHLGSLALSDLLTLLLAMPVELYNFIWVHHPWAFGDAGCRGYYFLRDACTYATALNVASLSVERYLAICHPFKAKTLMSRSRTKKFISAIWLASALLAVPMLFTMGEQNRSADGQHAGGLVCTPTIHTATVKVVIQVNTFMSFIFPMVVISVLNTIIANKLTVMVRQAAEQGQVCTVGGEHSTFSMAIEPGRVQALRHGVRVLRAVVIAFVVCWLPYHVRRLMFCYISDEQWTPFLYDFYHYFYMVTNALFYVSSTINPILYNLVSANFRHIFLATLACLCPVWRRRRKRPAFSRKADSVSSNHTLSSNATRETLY

| Compound | EC50 [µM] |
| --- | --- |
| CN(CCO)c1ccc2nc(C3CC3)nc(N3CCN(C4CCCC4O)CC3)c2c1 (stereo not shown) [Example 140, 2-(4-{2-cyclopropyl-6-[(2-hydroxy-ethyl)-methyl-amino]-quinazolin-4-yl}-piperazin-1-yl)-cyclopentanol] | > 10 |
| CN(CCN1CCOCC1)c1ccc2nc(C3CC3)nc(N3CCN(C4CCCC4O)CC3)c2c1 (stereo not shown) [Example 142, 2-(4-{2-cyclopropyl-6-[methyl-(2-morpholin-4-yl-ethyl)-amino]-quinazolin-4-yl}-piperazin-1-yl)-cyclopentanol] | > 10 |
| CCOC(=O)CN(CC(=O)OCC)C1CCN(c2ccc3nc(C4CC4)nc(N4CCC(c5ccccc5OC)CC4)c3c2)CC1 [Example 92] | > 10 |
| COc1cncnc1C1CCN(c2nc(C3(F)CC3)nc3c(F)cc(N(C)CCO)cc23)CC1 [Example 217, 2-({8-Fluoro-2-(1-fluoro-cyclopropyl)-4-[4-(5-methoxy-pyrimidin-4-yl)-piperidin-1-yl]-quinazolin-6-yl}-methyl-amino)-ethanol] | > 10 |
| CN(C)c1ccccc1C1CCN(c2nc(C3(C)CC3)nc3ccc(N(C)CCN4CCOCC4)cc23)CC1 [Example 27] | > 10 |
| COc1ccccc1C1CCN(c2nc(C#CC3CC3)nc3ccc(N(C)CCO)cc23)CC1 [Example 191, 2-({2-Cyclopropylethynyl-4-[4-(2-methoxy-phenyl)-piperidin-1-yl]-quinazolin-6-yl}-methyl-amino)-ethanol] | 2 to 10 |
| CCCN(C)C(=O)Cc1c(C)nc(N2CCC(c3ccccc3OC)CC2)nc1C1CC1 [Example 162, 2-{4-cyclopropyl-2-[4-(2-methoxy-phenyl)-piperidin-1-yl]-6-methyl-pyrimidin-5-yl}-N-methyl-N-propyl-acetamide] | > 10 |
| COc1ccccc1C1CCN(c2nc(C3CC3)nc3ccc(CN(C)CCO)cc23)CC1 [Example 89, 2-({2-cyclopropyl-4-[4-(2-methoxy-phenyl)-piperidin-1-yl]-quinazolin-6-ylmethyl}-methyl-amino)-ethanol] | > 10 |
| CN(CCN1CCCC1)c1ccc2nc(C3(C)CC3)nc(N3CCC(c4ccccc4N4CCC4)CC3)c2c1 [Example 36, [4-[4-(2-azetidin-1-yl-phenyl)-piperidin-1-yl]-2-(1-methyl-cyclopropyl)-quinazolin-6-yl]-methyl-(2-pyrrolidin-1-yl-ethyl)-amine] | > 10 |
| COc1cc(I)ccc1C1CCN(c2nc(C3(F)CC3)nc3ccc(N(C)CCO)cc23)CC1 [Example 218] | > 10 |
| CN(C)c1ccccc1C1CCN(c2nc(C3CC3)nc3ccc(N(C)CCN4CCOCC4)cc23)CC1 [Example 12, {2-Cyclopropyl-4-[4-(2-dimethylamino-phenyl)-piperidin-1-yl]-quinazolin-6-yl}-methyl-(2-morpholin-4-yl-ethyl)-amine] | 2 to 10 |
| COc1cncnc1C1CCN(c2nc(C3(F)CC3)nc3ccc(N(C)CCO)cc23)CC1 [Example 211, 2-({2-(1-Fluoro-cyclopropyl)-4-[4-(5-methoxy-pyrimidin-4-yl)-piperidin-1-yl]-quinazolin-6-yl}-methyl-amino)-ethanol] | > 10 |
| CN(C)c1ccccc1C1CCN(c2nc(C3(F)CCCC3)nc3ccc(N(C)CCN4CCOCC4)cc23)CC1 [Example 73, [4-[4-(2-dimethylamino-phenyl)-piperidin-1-yl]-2-(1-fluoro-cyclopentyl)-quinazolin-6-yl]-methyl-(2-morpholin-4-yl-ethyl)-amine] | 2 to 10 |
| COc1ccccc1C1CCN(c2nc(C3CC3)nc3cccc(N(C)CCO)c23)CC1 [Example 168, 2-({2-Cyclopropyl-4-[4-(2-methoxy-phenyl)-piperidin-1-yl]-quinazolin-5-yl}-methyl-amino)-ethanol] | > 10 |
| CCCN(C)c1ccc2nc(C3(N(C)CCC)CC3)nc(N3CCC(c4ccccc4OC)CC3)c2c1 [Example 21, {4-[4-(2-methoxy-phenyl)-piperidin-1-yl]-2-[1-(methyl-propyl-amino)-cyclopropyl]-quinazolin-6-yl}-methyl-propyl-amine] | > 10 |

Further lines, results first:

| EC50 [µM] | Compound |
| --- | --- |
| < 0.5 | COc1ccccc1C1CCN(c2nc(C3(C)CC3)nc3ccc(N(C)CCO)cc23)CC1 [Example 22, 2-{[4-[4-(2-methoxy-phenyl)-piperidin-1-yl]-2-(1-methyl-cyclopropyl)-quinazolin-6-yl]-methyl-amino}-ethanol] |
| 2 to 10 | COc1ccccc1C1CCN(c2nc(C3(C(F)(F)F)CC3)nc3ccc(N(C)CCN4CCOCC4)cc23)CC1 [Example 48] |
| 2 to 10 | CCCN(C)c1ccc2nc(C3CC3)nc(N3CC4(CN(c5ccccc5OC)C4)C3)c2c1 [Example 100, {2-cyclopropyl-4-[6-(2-methoxy-phenyl)-2,6-diaza-spiro [3.3]hept-2-yl]-quinazolin-6-yl}-methyl-propyl-amine] |
| 2 to 10 | CN(C)c1ccccc1C1CCN(c2nc(C3CCCC3)nc3ccc(N(C)CCN4CCOCC4)cc23)CC1 [Example 74, {2-cyclopentyl-4-[4-(2-dimethylamino-phenyl)-piperidin-1-yl]-quinazolin-6-yl}-methyl-(2-morpholin-4-yl-ethyl)-amine] |
| 2 to 10 | CN(CCO)c1cc2c(N3CCC(c4ccccc4N4CCC4)CC3)nc(C3CC3)nc2cc1Cl [Example 119, 2-({4-[4-(2-azetidin-1-yl-phenyl)-piperidin-1-yl]-7-chloro-2-cyclopropyl-quinazolin-6-yl}-methyl-amino)-ethanol] |
| 0.5 to 2 | COCCN(C)c1ccc2nc(C3(F)CC3)nc(N3CCC(c4ccccc4OC)CC3)c2c1 [Example 16, {2-(1-fluoro-cyclopropyl)-4-[4-(2-methoxy-phenyl)-piperidin-1-yl]-quinazolin-6-yl}-(2-methoxy-ethyl)-methyl-amine] |
| 2 to 10 | CN(C)CCN(C)c1ccc2nc(C3CC3)nc(N3CCC(c4ccccc4N4CCC4)CC3)c2c1 [Example 5, N-{4-[4-(2-azetidin-1-yl-phenyl)-piperidin-1-yl]-2-cyclopropyl-quinazolin-6-yl}-N,N′,N′-trimethyl-ethane-1,2-diamine] |
| < 0.5 | COc1ccccc1C1CCN(c2nc(C3CC3)nc3c(F)cc(N(C)CCO)cc23)CC1 [Example 133, 2-((2-cyclopropyl-8-fluoro-4-(4-(2-methoxyphenyl)piperidin-1-yl)quinazolin-6-yl)(methyl)amino)ethanol] |
| 0.5 to 2 | COc1ccccc1C1CCN(c2nc(C3(F)CCCC3)nc3ccc(N(C)CCO)cc23)CC1 [Example 72, 2-({2-(1-fluoro-cyclopentyl)-4-[4-(2-methoxy-phenyl)-piperidin-1-yl]-quinazolin-6-yl}-methyl-amino)-ethanol] |
| < 0.5 | COc1ccccc1C1CCN(c2nc(C3(C(F)(F)F)CC3)nc3ccc(N(C)CCO)cc23)CC1 [Example 47, 2-{[4-[4-(2-methoxy-phenyl)-piperidin-1-yl]-2-(1-trifluoromethyl-cyclopropyl)-quinazolin-6-yl]-methyl-amino}-ethanol] |
| 0.5 to 2 | COc1ccccc1C1CCN(c2nc(C3CC3)nc3ccc(N4CCC(OC)C4)cc23)CC1 (stereo not shown) [Example 80, 2-cyclopropyl-4-[4-(2-methoxy-phenyl)-piperidin-1-yl]-6-(3-methoxy-pyrrolidin-1-yl)-quinazoline] |
| 0.5 to 2 | COc1ccccc1C1CCN(c2nc(C3CC3)nc3ccc(N4CCC(O)C4)cc23)CC1 (stereo not shown) [Example 79, 1-{2-cyclopropyl-4-[4-(2-methoxy-phenyl)-piperidin-1-yl]-quinazolin-6-yl}-pyrrolidin-3-ol] |
| < 0.5 | COc1ccccc1C1CCN(c2nc(C3(F)CC3)nc3c(Cl)cc(N(C)CCO)cc23)CC1 [Example 201, 2-({8-Chloro-2-(1-fluoro-cyclopropyl)-4-[4-(2-methoxy-phenyl)-piperidin-1-yl]-quinazolin-6-yl}-methyl-amino)-ethanol] |
